Read-outs that look alike come from different tables or passages of the source.
Legend:
diamondback moth larvae = assay: Leaf dip test, diamondback moth larvae; format: in vivo; settings: Plutella xylostella, foliar, Bta/Btk 1.69 ppm, chlorantraniliprole 0.0009 ppm, read-out: % Efficacy
Text: (§1) The following examples were used to determine the synergy of Bacillus thuringiensis subsp. aizawai, Bacillus thuringiensis subsp. kurstaki and chlorantraniliprole when controlling diamondback moth, beet armyworm, sugarcane borer, soybean looper, corn earworm, cabbage looper, and southwestern corn borer. Sympatico™ emulsifiable suspension (available from Valent BioSciences Corporation) was used as the source of Bacillus thuringiensis subsp. aizawai and Bacillus thuringiensis kurstaki. Sympatico™ contains about a 1:0.67 ratio of Bacillus thuringiensis subsp. kurstaki fermentation solids, spores and toxins to Bacillus thuringiensis subsp. aizawai fermentation solids, spores and toxins. Coragen® was used as the source of chlorantraniliprole. The present invention is not limited to the commercial products used in the examples. In each example below, the studies were conducted as follows.
(§2) For these tests, standardized laboratory leaf dip methods were used to inoculate plant material with treatment(s). Dry, treated leaves were placed into Petri dishes (100×25 mm) containing filter paper wetted with 500 μl of distilled H2O (“dH2O”). Each dish was then infested with between 5 and 10 larvae, dependent on species. Efficacy ratings were taken at specified intervals. Synergy ratings were calculated for each test. […]

cabbage looper larvae = assay: Leaf dip test, cabbage looper larvae; format: in vivo; settings: Trichoplusia ni, foliar, Bta/Btk 1.69 ppm, chlorantraniliprole 0.0009 ppm, read-out: % Efficacy
Text: as §1, §2

corn earworm larvae = assay: Leaf dip test, corn earworm larvae; format: in vivo; settings: Helicoverpa zea, foliar, Bta/Btk 5.4 ppm, chlorantraniliprole 0.0009 ppm, read-out: % Efficacy
Text: as §1, §2

[1] = test system: southwestern corn borer larvae; assay: Leaf dip test, southwestern corn borer larvae; format: in vivo, Diatraea grandiosella; settings: foliar, Bta/Btk 1.69 ppm, chlorantraniliprole 0.0009 ppm, read-out: % Efficacy
Text: as §1, §2

sugarcane borer larvae = assay: Leaf dip test, sugarcane borer larvae; format: in vivo; settings: Diatraea saccharalis, foliar, Bta/Btk 1.69 ppm, chlorantraniliprole 0.0009 ppm, read-out: % Efficacy
Text: as §1, §2

soybean looper larvae = assay: Leaf dip test, soybean looper larvae; format: in vivo, Chrysodeixis includens; settings: foliar, Bta/Btk 0.54 ppm, chlorantraniliprole 0.045 ppm, read-out: % Efficacy
Text: as §1, §2

beet armyworm larvae = assay: Leaf dip test, beet armyworm larvae; format: in vivo; settings: Spodoptera exigua, foliar, Bta/Btk 1.69 ppm, chlorantraniliprole 0.0009 ppm, read-out: % Efficacy
Text: as §1, §2

Compound: CNC(=O)c1cc(Cl)cc(C)c1NC(=O)c1cc(Br)nn1-c1ncccc1Cl [Chlorantraniliprole]
- Emax at 0.0009 ppm (diamondback moth larvae; 24 h after treatment): 7%
- Emax at 0.0009 ppm (diamondback moth larvae; 48 h after treatment): 13%
- Emax at 0.0009 ppm (cabbage looper larvae; 24 h after treatment): 3%
- Emax at 0.0009 ppm (cabbage looper larvae; 48 h after treatment): 10%
- Emax at 0.0009 ppm (corn earworm larvae; 24 h after treatment): 3%
- Emax at 0.0009 ppm (corn earworm larvae; 48 h after treatment): 3%
- Emax at 0.0009 ppm ([1]; 24 h after treatment): 3%
- Emax at 0.0009 ppm ([1]; 48 h after treatment): 3%
- Emax at 0.0009 ppm (sugarcane borer larvae; 24 h after treatment): 3%
- Emax at 0.0009 ppm (sugarcane borer larvae; 48 h after treatment): 13%
- Emax at 0.045 ppm (soybean looper larvae; 24 h after treatment): 3%
- Emax at 0.045 ppm (soybean looper larvae; 48 h after treatment): 14%
- Emax at 0.0009 ppm (beet armyworm larvae; 24 h after treatment): 3%
- Emax at 0.0009 ppm (beet armyworm larvae; 48 h after treatment): 7%

From US9723844B2, “Synergistic Bacillus thuringiensis subsp. aizawai, Bacillus thuringiensis subsp. kurstaki and chlorantraniliprole mixtures for diamondback moth, beet armyworm, sugarcane borer, soybean looper, corn earworm, cabbage looper, and southwestern corn borer control” (Valent BioSciences Corporation, priority 2015, dated 2017)
